The target in experiment [1] is Myosin light chain kinase 2, skeletal/cardiac muscle (Homo sapiens) (UniProt Q9H1R3). In words: Inhibition of MLCK2 (unknown origin) at 10 uM after 120 mins P33 radiolabeled kinase activity assay.
Experiment [2] concerns the target Mitogen-activated protein kinase 11 (Homo sapiens) (UniProt Q15759). In words: Inhibition of P38beta (unknown origin) at 10 uM after 120 mins P33 radiolabeled kinase activity assay.
Experiment [3] concerns the target Tyrosine-protein kinase Lck (Homo sapiens) (UniProt P06239). In words: Inhibition of LCK (unknown origin) at 10 uM after 120 mins P33 radiolabeled kinase activity assay.
In experiment [4] the target is T1, Serine/threonine-protein kinase Nek11 (Homo sapiens) (UniProt Q8NG66).
T1 sequence (whole entry): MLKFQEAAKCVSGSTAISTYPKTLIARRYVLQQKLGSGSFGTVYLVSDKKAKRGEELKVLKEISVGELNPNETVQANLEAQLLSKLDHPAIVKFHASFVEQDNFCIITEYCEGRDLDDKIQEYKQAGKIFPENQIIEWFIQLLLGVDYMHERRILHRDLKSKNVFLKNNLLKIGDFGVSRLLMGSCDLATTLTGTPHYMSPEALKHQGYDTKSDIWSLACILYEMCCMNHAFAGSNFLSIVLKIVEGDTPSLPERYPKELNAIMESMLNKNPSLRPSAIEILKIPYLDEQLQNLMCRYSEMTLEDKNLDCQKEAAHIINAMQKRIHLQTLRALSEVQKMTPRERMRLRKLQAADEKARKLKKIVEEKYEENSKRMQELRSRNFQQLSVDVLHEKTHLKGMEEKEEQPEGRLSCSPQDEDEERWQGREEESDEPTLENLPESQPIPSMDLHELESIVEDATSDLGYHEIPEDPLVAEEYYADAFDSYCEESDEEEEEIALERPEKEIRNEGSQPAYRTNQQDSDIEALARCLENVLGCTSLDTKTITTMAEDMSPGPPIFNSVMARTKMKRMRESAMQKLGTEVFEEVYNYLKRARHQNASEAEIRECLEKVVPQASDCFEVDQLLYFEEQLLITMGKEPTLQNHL
In words: Inhibition of NEK11 (unknown origin) at 10 uM after 120 mins P33 radiolabeled kinase activity assay.

In experiment [5] the target is T2, Mitogen-activated protein kinase kinase kinase 2 (Homo sapiens) (UniProt Q9Y2U5).
T2 sequence (whole entry): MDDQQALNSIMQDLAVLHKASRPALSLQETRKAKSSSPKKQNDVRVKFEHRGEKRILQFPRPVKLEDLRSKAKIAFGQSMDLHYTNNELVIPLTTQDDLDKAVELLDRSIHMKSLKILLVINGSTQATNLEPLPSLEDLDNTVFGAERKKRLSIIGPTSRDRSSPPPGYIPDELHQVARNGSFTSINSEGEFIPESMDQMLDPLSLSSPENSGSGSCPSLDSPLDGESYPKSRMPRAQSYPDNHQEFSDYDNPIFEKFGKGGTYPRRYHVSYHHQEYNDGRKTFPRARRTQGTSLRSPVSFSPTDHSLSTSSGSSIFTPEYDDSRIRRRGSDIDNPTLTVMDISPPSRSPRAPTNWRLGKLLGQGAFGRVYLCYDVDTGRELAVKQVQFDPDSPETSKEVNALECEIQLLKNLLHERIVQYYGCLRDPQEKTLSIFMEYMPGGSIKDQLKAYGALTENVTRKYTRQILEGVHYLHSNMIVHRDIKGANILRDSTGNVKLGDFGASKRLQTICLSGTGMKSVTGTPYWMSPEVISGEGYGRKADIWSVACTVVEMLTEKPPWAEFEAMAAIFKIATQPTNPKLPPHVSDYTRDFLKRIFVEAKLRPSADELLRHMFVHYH
In words: Inhibition of MEKK2 (unknown origin) at 10 uM after 120 mins P33 radiolabeled kinase activity assay.

For experiment [6], the target named is Interleukin-1 receptor-associated kinase 1 (Homo sapiens) (UniProt P51617). In words: Inhibition of IRAK1 (unknown origin) at 10 uM after 120 mins P33 radiolabeled kinase activity assay.
Sequence of Interleukin-1 receptor-associated kinase 1 (Homo sapiens) (P51617 whole entry, looked up): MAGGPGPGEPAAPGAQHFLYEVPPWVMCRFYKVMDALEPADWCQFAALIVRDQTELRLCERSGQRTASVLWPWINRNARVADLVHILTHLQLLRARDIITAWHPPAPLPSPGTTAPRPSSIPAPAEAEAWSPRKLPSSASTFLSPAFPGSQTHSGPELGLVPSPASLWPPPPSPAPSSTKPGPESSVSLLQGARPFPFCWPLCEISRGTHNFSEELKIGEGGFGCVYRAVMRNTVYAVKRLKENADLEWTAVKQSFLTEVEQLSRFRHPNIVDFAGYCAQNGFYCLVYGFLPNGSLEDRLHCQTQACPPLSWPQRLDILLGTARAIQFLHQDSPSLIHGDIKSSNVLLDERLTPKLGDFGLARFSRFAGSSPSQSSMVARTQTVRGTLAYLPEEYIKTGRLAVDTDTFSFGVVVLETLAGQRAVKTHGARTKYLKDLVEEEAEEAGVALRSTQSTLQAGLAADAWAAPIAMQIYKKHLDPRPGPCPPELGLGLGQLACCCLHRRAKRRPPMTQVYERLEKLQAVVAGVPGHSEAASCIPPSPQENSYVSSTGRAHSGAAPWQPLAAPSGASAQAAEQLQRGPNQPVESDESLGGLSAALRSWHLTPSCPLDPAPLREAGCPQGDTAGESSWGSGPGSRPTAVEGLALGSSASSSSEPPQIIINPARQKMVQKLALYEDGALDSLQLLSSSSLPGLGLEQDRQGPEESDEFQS
For experiment [7], the target named is T3, Serine/threonine-protein kinase TBK1 (Homo sapiens) (UniProt Q9UHD2).
T3 sequence (whole entry): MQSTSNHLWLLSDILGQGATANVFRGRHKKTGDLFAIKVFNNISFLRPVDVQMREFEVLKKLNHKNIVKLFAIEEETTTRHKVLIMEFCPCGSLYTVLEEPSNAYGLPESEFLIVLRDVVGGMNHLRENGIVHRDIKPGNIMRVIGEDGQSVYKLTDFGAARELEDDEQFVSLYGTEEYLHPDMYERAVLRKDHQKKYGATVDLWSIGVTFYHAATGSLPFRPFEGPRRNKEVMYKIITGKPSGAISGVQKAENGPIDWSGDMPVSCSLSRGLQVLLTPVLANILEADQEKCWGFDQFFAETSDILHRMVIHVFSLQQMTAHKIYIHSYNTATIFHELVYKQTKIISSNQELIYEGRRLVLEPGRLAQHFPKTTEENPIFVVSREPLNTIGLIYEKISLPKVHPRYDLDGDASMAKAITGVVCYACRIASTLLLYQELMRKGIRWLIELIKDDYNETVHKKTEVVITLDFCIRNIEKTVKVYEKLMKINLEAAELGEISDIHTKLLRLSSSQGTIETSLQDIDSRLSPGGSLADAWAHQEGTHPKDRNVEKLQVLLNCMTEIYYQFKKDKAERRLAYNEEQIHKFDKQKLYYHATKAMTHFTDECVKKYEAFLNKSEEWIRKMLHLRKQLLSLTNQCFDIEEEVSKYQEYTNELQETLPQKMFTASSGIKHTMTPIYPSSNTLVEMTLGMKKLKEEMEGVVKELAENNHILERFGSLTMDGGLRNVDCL
In words: Inhibition of TBK1 (unknown origin) at 10 uM after 120 mins P33 radiolabeled kinase activity assay.

Experiment [8] has as its target Tyrosine-protein kinase Yes (Homo sapiens) (UniProt P07947). In words: Inhibition of YES (unknown origin) at 10 uM after 120 mins P33 radiolabeled kinase activity assay.
Experiment [9] has as its target Receptor-interacting serine/threonine-protein kinase 2 (Homo sapiens, UniProt O43353). In words: Inhibition of full-length FLAG-6His-TEV tagged human RIP2 expressed in Sf9 cells assessed as reduction in autophosphorylation pre-incubated for 30 mins followed by incubation with ATP for 2 hrs by ADP-Glo assay. (In general: ADP-Glo turns the ADP formed in a reaction into a luminescent signal.)

The target of experiment [10] is T4, Mitogen-activated protein kinase 13 (Homo sapiens) (UniProt O15264).
T4 sequence (whole entry): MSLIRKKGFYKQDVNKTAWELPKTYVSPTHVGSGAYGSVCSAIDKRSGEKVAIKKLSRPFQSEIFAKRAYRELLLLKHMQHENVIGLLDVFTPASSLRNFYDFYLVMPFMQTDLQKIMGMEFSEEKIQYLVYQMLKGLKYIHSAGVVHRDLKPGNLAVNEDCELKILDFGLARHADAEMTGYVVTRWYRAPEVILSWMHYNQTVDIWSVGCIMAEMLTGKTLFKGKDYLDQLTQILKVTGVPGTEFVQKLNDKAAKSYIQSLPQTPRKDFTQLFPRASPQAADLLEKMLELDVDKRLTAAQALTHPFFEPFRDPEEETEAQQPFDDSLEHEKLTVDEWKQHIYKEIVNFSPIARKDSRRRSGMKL
In words: Inhibition of P38delta (unknown origin) at 10 uM after 120 mins P33 radiolabeled kinase activity assay.

The term inhibition denotes the change of the read-out against control, counted positive when it falls. As a reminder, the IC50 is the midpoint of a concentration-inhibition curve.

Sequence of Tyrosine-protein kinase Lck (Homo sapiens) (P06239 2-509 limits assumed): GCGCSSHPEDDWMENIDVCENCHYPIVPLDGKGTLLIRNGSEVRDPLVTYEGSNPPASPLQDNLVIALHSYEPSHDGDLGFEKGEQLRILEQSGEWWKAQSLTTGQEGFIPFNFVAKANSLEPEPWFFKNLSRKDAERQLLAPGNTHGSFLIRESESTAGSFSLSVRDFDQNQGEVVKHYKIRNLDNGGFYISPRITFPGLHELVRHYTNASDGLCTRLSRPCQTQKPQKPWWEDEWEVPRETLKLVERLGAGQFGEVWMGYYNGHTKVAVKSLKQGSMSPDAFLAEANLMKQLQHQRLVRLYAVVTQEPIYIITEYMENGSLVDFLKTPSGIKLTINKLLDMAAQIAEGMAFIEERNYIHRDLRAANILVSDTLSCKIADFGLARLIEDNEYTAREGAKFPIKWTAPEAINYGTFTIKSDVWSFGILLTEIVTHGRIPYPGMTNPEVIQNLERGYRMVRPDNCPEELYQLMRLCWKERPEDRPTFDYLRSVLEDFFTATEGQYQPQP
Sequence of Myosin light chain kinase 2, skeletal/cardiac muscle (Homo sapiens) (Q9H1R3 whole entry): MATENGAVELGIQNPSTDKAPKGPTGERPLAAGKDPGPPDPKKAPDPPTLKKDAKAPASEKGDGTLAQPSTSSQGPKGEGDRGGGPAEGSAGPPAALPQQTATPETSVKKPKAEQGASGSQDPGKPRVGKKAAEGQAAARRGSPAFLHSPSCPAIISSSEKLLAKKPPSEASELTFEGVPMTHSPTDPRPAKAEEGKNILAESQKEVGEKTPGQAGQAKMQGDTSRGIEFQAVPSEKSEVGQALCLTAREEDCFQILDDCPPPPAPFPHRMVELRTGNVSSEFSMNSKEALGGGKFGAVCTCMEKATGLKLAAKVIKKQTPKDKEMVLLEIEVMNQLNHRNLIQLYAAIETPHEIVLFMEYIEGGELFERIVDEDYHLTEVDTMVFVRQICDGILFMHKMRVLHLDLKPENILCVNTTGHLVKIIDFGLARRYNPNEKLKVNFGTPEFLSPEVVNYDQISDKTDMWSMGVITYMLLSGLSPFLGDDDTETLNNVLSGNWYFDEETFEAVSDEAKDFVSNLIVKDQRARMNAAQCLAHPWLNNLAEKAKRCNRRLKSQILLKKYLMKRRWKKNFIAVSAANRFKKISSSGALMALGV
Sequence of Mitogen-activated protein kinase 11 (Homo sapiens) (Q15759 whole entry): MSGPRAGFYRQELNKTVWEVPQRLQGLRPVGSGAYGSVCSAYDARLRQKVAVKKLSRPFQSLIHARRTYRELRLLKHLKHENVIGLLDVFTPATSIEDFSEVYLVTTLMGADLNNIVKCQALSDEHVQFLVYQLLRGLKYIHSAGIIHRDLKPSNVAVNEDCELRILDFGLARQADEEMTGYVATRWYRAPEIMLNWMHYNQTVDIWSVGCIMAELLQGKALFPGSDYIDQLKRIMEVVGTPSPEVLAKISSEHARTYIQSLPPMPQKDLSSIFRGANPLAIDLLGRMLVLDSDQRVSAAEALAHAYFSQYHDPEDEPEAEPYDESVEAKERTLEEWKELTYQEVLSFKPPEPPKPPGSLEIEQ
Sequence of Tyrosine-protein kinase Yes (Homo sapiens) (P07947 2-543 limits assumed): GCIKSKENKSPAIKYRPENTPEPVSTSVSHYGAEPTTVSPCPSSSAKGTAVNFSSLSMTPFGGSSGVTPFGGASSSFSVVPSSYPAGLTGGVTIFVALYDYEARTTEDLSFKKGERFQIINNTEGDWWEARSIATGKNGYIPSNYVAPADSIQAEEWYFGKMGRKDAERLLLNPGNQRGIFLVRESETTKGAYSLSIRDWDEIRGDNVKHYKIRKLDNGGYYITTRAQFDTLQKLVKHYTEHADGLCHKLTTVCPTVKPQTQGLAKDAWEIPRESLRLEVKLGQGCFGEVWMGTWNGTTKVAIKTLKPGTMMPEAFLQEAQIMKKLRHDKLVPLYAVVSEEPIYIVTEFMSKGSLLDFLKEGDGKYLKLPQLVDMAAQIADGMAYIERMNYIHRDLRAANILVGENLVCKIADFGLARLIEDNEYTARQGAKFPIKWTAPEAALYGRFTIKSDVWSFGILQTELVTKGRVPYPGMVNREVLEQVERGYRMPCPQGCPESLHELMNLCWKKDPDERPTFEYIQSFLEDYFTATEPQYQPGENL
Sequence of Receptor-interacting serine/threonine-protein kinase 2 (O43353 whole entry): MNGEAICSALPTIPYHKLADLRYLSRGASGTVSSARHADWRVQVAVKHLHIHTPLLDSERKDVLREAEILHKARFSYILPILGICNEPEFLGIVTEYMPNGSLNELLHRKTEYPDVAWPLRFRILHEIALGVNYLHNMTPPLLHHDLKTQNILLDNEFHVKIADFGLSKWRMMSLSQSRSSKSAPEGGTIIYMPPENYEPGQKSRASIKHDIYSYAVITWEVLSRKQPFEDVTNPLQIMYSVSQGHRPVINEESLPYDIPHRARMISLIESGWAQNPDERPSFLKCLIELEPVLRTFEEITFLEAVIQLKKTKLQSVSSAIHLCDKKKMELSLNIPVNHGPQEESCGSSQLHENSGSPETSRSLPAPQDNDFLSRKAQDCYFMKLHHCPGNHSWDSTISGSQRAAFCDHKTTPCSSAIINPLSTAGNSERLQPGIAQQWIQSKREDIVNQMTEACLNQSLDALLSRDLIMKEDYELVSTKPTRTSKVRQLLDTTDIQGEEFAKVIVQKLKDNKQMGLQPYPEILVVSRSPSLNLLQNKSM

On to `COCCNC(=O)c1ccc2c(c1)nc(-c1cnc(-c3ccc(Cl)cc3)[nH]1)n2CCOC`, for which the inhibition in experiment [1] amounted to 12.1%; in experiment [2], 10%; in experiment [3] it was 52.8%; in [4], 24.4%; in [5], 16.7%; in [6] it was 5.62%. The inhibition in experiment [7] came to 5.84%; in experiment [8] it was 70.8%; in experiment [10] it was 3.01%. In addition, in experiment [9], the IC50 came to 12 nM.

`CC(C)(C)c1cc(NC(=O)Nc2ccc(Oc3ccncc3)cc2)no1`: the inhibition was found to be 53.2% in [1]; 96.2% in experiment [2]; 95.3% in [3]; 24.4% in experiment [4]; 23.3% in [5]; 99.1% in experiment [6]. Besides, the figures for the inhibition in experiment [7], in experiment [8] and in [10] were 4.25%, 82% and 93.4%, respectively. The IC50 in experiment [9] was determined as 63 nM.

In the case of `CS(=O)(=O)c1cccc(Nc2nccc(-c3sc(N4CCOCC4)nc3-c3cccc(NS(=O)(=O)c4c(F)cccc4F)c3)n2)c1`, the inhibition was 30.2% in experiment [1]; -5.84% in experiment [2]; 99.9% in experiment [3]; 89.4% in [4]; 55% in [5]; 27.6% in [6]. For the same compound, the figures for the inhibition in experiment [7], in experiment [8] and in experiment [10] were 55.4%, 99.9% and 2%, respectively. Also, the IC50 in experiment [9] is 6.3 nM.

The record behind these values is ChEMBL document CHEMBL3627608, “Crystal structures of human RIP2 kinase catalytic domain complexed with ATP-competitive inhibitors: Foundations for understanding inhibitor selectivity” (Bioorg Med Chem, 2015).
